Experimental findings from PMC5707067, “Farnesyl phenolic enantiomers as natural MTH1 inhibitors from Ganoderma sinense” (Oncotarget, 2017) are described below.

Molecules are shown by their SMILES.

What is called IC50 is the concentration needed to halve the response being measured. A low value points to greater potency in that assay. What is called Kd is a measure of binding affinity in units of concentration.

Assay [1] relates to human osteosarcoma cells (U2OS). The experiment in a line: CCK8 cytotoxicity assay, U2OS. The format is cell-based. Particulars: Homo sapiens, U2OS; CCK8, 48 h, carcinoma cell line. The text has this: The growth inhibitory effects of the isolated farnesyl phenolic compounds (1–8) against carcinoma cell lines [human osteosarcoma cells (U2OS), human colorectal carcinoma cells (SW620), human ES-2 ovarian carcinoma cells (ES-2)] and normal tissue cell lines [human hepatic cells (Lo2), African green monkey kidney vero cells (Vero)] were further investigated using CCK8 assay method (Table 3).
Carcinoma cell lines [human osteosarcoma cells (U2OS), human colorectal carcinoma cells (SW620), human ES-2 ovarian carcinoma cells (ES-2)] and normal tissue cell lines [human hepatic cells (Lo2), African green monkey kidney Vero cells (Vero)] The U2OS, SW620, ES-2, Lo2 and Vero were obtained from ATCC (Manassas, VA, USA). The SW620 and Vero cells were cultured in Roswell Park Memorial Institute medium (RPMI), with 10% fetal bovine serum (Hyclone) and 1% penicillin-streptomycin (Sigma). Lo2, U2OS and ES-2 cells were grown in Dulbecco's modified eagle medium (DMEM), with 10% fetal bovine serum (Hyclone) and 1% penicillin-streptomycin (Sigma). All of these cells were cultured at 37°C in a humidified atmosphere with 5% CO2. For CCK8 assay cytotoxicity evaluation of compounds, all cells were separately plated at a density of 1 × 10^4 cells/well in a 96 well plate. Cells were cultivated at 37°C in 5% CO2 atmosphere for 24 h, then medium in the wells was replaced with fresh medium containing compounds which were diluted in 8 dilution steps covering the range from 200 μM to 1.5625 μM. And DMSO was used as negative control. After 48 h incubation, 10 μL of CCK8 solution was added to each well. After 30 min, the optical density (OD) of each well was measured at wavelength of 450 nm on spectrophotometer. Data were corrected for background (no-cell control) and expressed as a percentage of the value for untreated cells. The IC50 values of the isolated compounds were derived from the mean OD values of the triplicate tests versus the drug concentration curves.
Background: Tetrazolium assays rely on reduction of a dye to a coloured formazan, in cell work by metabolically active cells.

The test system of assay [2] is MTH1 siRNA transfected SW620 cells. The experiment in a line: CCK8 growth assay in MTH1 siRNA transfected cells. The format is cell-based, human. As to the method: In order to study whether the cytotoxicity of the farnesyl phenolic compounds was due to the inhibition of MTH1, the expression of endogenous MTH1 was knocked down in cancer cells. SW620 cell lines were transfected with MTH1 siRNA (#1, #2 and #3), [2] while the control was transfected with non-targeting siRNA (NT). The expression levels of MTH1 were measured by Western blot assay (Figure 6A and 6B), both siRNA #2 and #3 knocked down expressions of MTH1 in SW620 cells. The effects of compound 1 on the growth of MTH1 siRNA (#2 and #3) and non-targeting siRNA transfected cells were assessed by CCK8 assay.
Figure 6 The specific binding of compound 1 to the MTH1 protein leads to cell growth inhibition (A, B) Western blot analysis and optical density analysis for the expression of MTH1 for the siRNA transfected cells. MTH1 siRNA #2 and #3 were both knocked down in SW620 cells compared with the non-target siRNA (NT). (C) The effects of compound 1 on the growth of MTH1 siRNA (#2 and #3) and non-targeting siRNA transfected cells were assessed by CCK8 assay. […] (D) The effects of compounds 1 on normal tissue cell lines [human hepatic cells (Lo2), African green monkey kidney vero cells (Vero)]. (E, F) Cellular thermal shift assay (CETSA) confirmed the binding capacity of compound 1 with MTH1 at the cellular level. […]

The target of assay [3] is T1, MTH1 (Homo sapiens, UniProt P36639). The experiment in a line: Microscale thermophoresis (MST) binding assay. In general terms: Microscale thermophoresis detects binding through changes in fluorescence in a small temperature gradient.
Method: Microscale thermophoresis method (MST) was employed to assay the binding affinity between the compounds and MTH1. […] The dissociation constant Kd values were automatically calculated by using the NT Analysis software (Nano Temper Technologies, München, Germany).
Recombinant human MTH1 was labeled with the Monolith NT™ Protein Labeling Kit RED (Cat#L001) according to the supplied labeling protocol [32]. Labelled MTH1 was kept constant at 100 nM, while all samples tested were diluted in a 20 mM HEPES (pH 7.5) and 0.05 (v/v) % Tween-20. Compounds were diluted in 12 dilution steps covering the range from 500 μM to 200 nM. After 10 min incubation at room temperature about 37°C, samples were loaded into Monolith™ standard-treated capillaries and the thermophoresis was measured at 25°C after 30 min incubation on a Monolith NT.115 instrument (NanoTemper Technologies, München, Germany). Laser power was set to 20% using 30 seconds on-time. The LED power was set to 100%. The dissociation constant Kd values were fitted by using the NTAnalysis software (NanoTemper Technologies, München, Germany). The Kd value of the binding was obtained in two ways. The first way was calculated by thermophoresis curve when there was no fluorescent change during the initial fluorescence scanning. The second way was calculated from the initial fluorescence scanning curve when compounds bound in the sites which directly interfered the fluorescence.
For assay [4], the target named is T1, MTH1. In words: Enzyme inhibition assay (8-oxo-dGTP hydrolysis, HPLC). Type of assay: biochemical. Also noted: hexa-histidine (His6) (N, cleaved yes); made in house; host or cells: E. coli BL21 Star. The conditions noted are these: 8-oxo-dGTP 25 μM, purified MTH1. On the procedure:
Microscale thermophoresis method (MST) was employed to assay the binding affinity between the compounds and MTH1. This technology can quantify protein-protein interactions or protein-small molecule interactions with high sensitivity through detecting fluorescent changes of molecules during thermophoresis.
To identify the efficacy of the eight compounds, an enzyme inhibition assay was carried out. […] Then the reaction was stop by the addition of 20 μL ice-cold Na2EDTA (50 mM). The reaction mixture was centrifugated at 15000 rpm at 4°C for 10 min. 20 μL of supernatant was injected on an HPLC column (Ultimate AQ-C18 RP-18e, 250 mm × 4.6 mm × 5 μm), and eluted isolate with 100 mM Na2HPO4-NaOH (pH 5.5)/MeOH 95:5 with flow rate 1 mL/min at column room of 30°C. […] Measurements were done in triplet, and IC50 values were calculated to compare the efficiency of various compounds.

Consider `CO[C@]1(c2cc(O)cc(O)c2)C=C(CCCC(CO)CC/C=C(\C)COC(=O)/C=C/c2ccc(O)cc2)C(=O)O1` (stereo partly drawn) [Compound 1, (5R)-3-{9-[(E)-coumaroyl]-4-hydroxymethyl-8-methyl-7-nonene}-5-(3,5-dihydroxyphenyl)-5-methoxy-2(5H)-furanone], for which the IC50 in assay [1] is 111 ± 1.29 µM; against MTH1 [4], 10.9 ± 1.04 µM. For the same molecule, the “growth inhibition of MTH1 siRNA (#2 and #3) vs non-targeting siRNA transfected cells” value in assay [2] is listed as “resistant to the growth inhibition”. This molecule also came in with a Kd on MTH1 [3] of 4.71 ± 0.686 µM.
